The source of these data is patent US10329309B2, “3-(3H-imidazo[4,5-B]pyridin-2-yl)-1H-pyrazolo[4,3-B]pyridines and therapeutic uses thereof” (Samumed, LLC, priority 2015, dated 2019).

For orientation: pEC50 means −log10 of the EC50, conventionally taken in molar units. A high value points to a small EC50.

Assay type in all cases: cell-based
Experiment [1] deals with primary human fibroblasts derived from IPF patients (LL29 cells), α-smooth muscle actin (αSMA). The experiment can be described thus: Inhibition of the fibrotic process: TGF-β1-treated primary human fibroblasts from IPF patients, αSMA staining. To be noted: Fibroblast, 96 h, LL29 fibroblasts from IPF patients, TGF-β1 20 ng/mL, 4 days, inhibition of fibrotic process. An excerpt: Representative compounds were screened using primary human fibroblasts (derived from IPF patients) treated with TGF-β1 to determine their ability to inhibit the fibrotic process.
Primary human fibroblasts derived from IPF patients (LL29 cells) [^1Xiaoqiu Liu, et. al., “Fibrotic Lung Fibroblasts Show Blunted Inhibition by cAMP Due to Deficient cAMP Response Element-Binding Protein Phosphorylation”, Journal of Pharmacology and Experimental Therapeutics (2005), 315(2), 678-687; ^2Watts, K. L., et. al., “RhoA signaling modulates cyclin D1 expression in human lung fibroblasts; implications for idiopathic pulmonary fibrosis”, Respiratory Research (2006), 7(1), 88] were obtained from American Type Culture Collection (ATCC) and expanded in F12 medium supplemented with 15% Fetal Bovine Serum and Penicillin/Streptomycin.
Each compound was dissolved in DMSO as a 10 mM stock and used to prepare compound source plates. Serial dilution (1:2, 11-point dose-response curves from 10 μM to 1.87 nM) and compound transfer was performed using the ECHO 550 (Labcyte, Sunnyvale, Calif.) into 384-well clear bottom assay plates (Greiner Bio-One) with appropriate DMSO backfill for a final DMSO concentration of 0.1%. LL29 cells are plated at 1,500 cells/well in 80 μL/well F12 medium supplemented with 1% Fetal Bovine Serum. One hour after addition of the cells, TGF-β1 (Peprotech; 20 ng/mL) was added to the plates to induce fibrosis (ref. 1 and 2 above). Wells treated with TGF-β1 and containing DMSO were used as controls. Cells were incubated at 37° C. and 5% CO2 for 4 days. Following incubation for 4 days, SYTOX green nucleic acid stain (Life Technologies [Thermo Fisher Scientific]) was added to the wells at a final concentration of 1 μM and incubated at room temperature for 30 min. Cells were then fixed using 4% formaldehyde (Electron Microscopy Sciences), washed 3 times with PBS followed by blocking and permeabilization using 3% Bovine Serum Albumin (BSA; Sigma) and 0.3% Triton X-100 (Sigma) in PBS. Cells were then stained with antibody specific to α-smooth muscle actin (αSMA; Abcam) (ref. 1 and 2 above) in 3% Bovine Serum Albumin (BSA; Sigma) and 0.3% Triton X-100 (Sigma) in PBS, and incubated overnight at 4° C. Cells were then washed 3 times with PBS, followed by incubation with Alexa Flor-647 conjugated secondary antibody (Life Technologies [Thermo Fisher Scientific]) and DAPI at room temperature for 1 hour. Cells were then washed 3 times with PBS and plates were sealed for imaging. αSMA staining was imaged by excitation at 630 nm and emission at 665 nm and quantified using the Compartmental Analysis program on the CellInsight CX5 (Thermo Scientific). Dead or apoptotic cells were excluded from analysis based on positive SYTOX green staining. % of total cells positive for αSMA were counted in each well and normalized to the average of 11 wells treated with TGF-β1 on the same plate using Dotmatics' Studies Software. The normalized averages (fold change over untreated) of 3 replicate wells for each compound concentration were used to create dose-responses curves and EC50 values were calculated using non-linear regression curve fit in the Dotmatics' Studies Software. For EC50 of >10 μM, the percent inhibition at 10 μM is provided.

The test system of the next experiment is SW480 colon cancer cells. Description: Cell viability assay (CellTiter-Blue), four days. To be noted: Homo sapiens, 96 h, CellTiter-Blue cell viability. The procedure: Representative compounds were screened using the following assay procedure to assess the effect on cell viability as described below.
Each compound was dissolved in DMSO as a 10 mM stock and used to prepare compound source plates. Serial dilution (1:3, 8-point dose-response curves from 10 μM to 0.0045 μM) and compound transfer was performed using the ECHO 550 (Labcyte, Sunnyvale, Calif.) into 96-well clear bottom, black-walled plates (Corning-Costar).
Approximately 2×10^3 SW480 colon cancer cells were seeded into each well and allowed to incubate in the presence or absence of compound for four days at 37° C./5% CO2. Eight replicates of DMSO-treated cells served as controls and cells treated with compound were performed in duplicate.
After incubation, 20 μL of CellTiter-Blue (Promega) was added to each well allowed to incubate for approximately 3 hours. This reagent was a buffered solution which contains resazurin, metabolically active cells were able to reduce rezarurin (blue) into resorufin (pink) which was highly fluorescent. This measured fluorescence was used as a readout for cell viability.
After incubation, the plates were read at Ex 560 nm Em 590 nm (Cytation 3, BioTek). Dose-response curves were generated and EC50 concentration values were calculated using non-linear regression curve fit in the GraphPad Prism (San Diego, Calif.) or Dotmatics' Studies Software (Bishops Stortford, UK). For EC50 of >10 μM, the percent inhibition at 10 μM is provided.
Background: Alamar Blue is a resazurin reagent that responds to reducing activity.

The subject of experiment [2] is Wnt activity (Sp5-Luc reporter, SW480 colon carcinoma cells). The experiment can be described thus: Screening assay for Wnt activity: Sp5-Luc reporter gene assay in SW480 cells. To be noted: Homo sapiens, overnight incubation, 10-point dose-response from 10 μM. An excerpt: The screening assay for Wnt activity is described as follows. Reporter cell lines can be generated by stably transducing cancer cell lines (e.g., colon cancer) or primary cells (e.g., IEC-6 intestinal cells) with a lentiviral construct that includes a Wnt-responsive promoter driving expression of the firefly luciferase gene.
SW480 colon carcinoma cells were transduced with a lentiviral vector expressing luciferase with a human Sp5 promoter consisting of a sequence of eight TCF/LEF binding sites. SW480 cells stably expressing the Sp5-Luc reporter gene and a hygromycin resistance gene were selected by treatment with 150 μg/mL of hygromycin for 7 days. These stably transduced SW480 cells were expanded in cell culture and used for all further screening activities. Each compound was dissolved in DMSO as a 10 mM stock and used to prepare compound source plates. Serial dilution (1:3, 10-point dose-response curves starting from 10 μM) and compound transfer was performed using the ECHO 550 (Labcyte, Sunnyvale, Calif.) into 384-well white solid bottom assay plates (Greiner Bio-One) with appropriate DMSO backfill for a final DMSO concentration of 0.1%. For Sp5-Luc reporter gene assays, the cells were plated at 4,000 cells/well in 384-well plates with medium containing 1% fetal bovine serum and incubated overnight at 37° C. and 5% CO2. Following incubation, 20 μl of BrightGlo luminescence reagent (Promega) was added to each well of the 384-well assay plates. The plates were placed on an orbital shaker for 2 min and then luminescence was quantified using the Envision (Perkin Elmer) plate reader. Readings were normalized to DMSO only treated cells, and normalized activities were utilized for EC50 calculations using the dose-response log (inhibitor) vs. response -variable slope (four parameters) nonlinear regression feature available in GraphPad Prism 5.0 (or Dotmatics). For EC50 of >10 μM, the percent inhibition at 10 μM is provided.
In general terms: In a reporter assay the amount or activity of a reporter protein is the signal.

The subject of another experiment is IL-6 (THP-1 cells). Description: Inhibition of IL-6 in LPS-stimulated THP-1 monocytes (HTRF). To be noted: Homo sapiens, LPS 500 ng/mL, IL-6 by HTRF. The procedure: Human monocyte cell line (THP-1 cells; Catalog # TIB-202, ATCC, Manassas, Va.) were cultured in Roswell Park Memorial Institute (RPMI) 1640 Medium (Catalog #21870-100, Buffalo, N.Y.) with 1% L-glutamine, 1% HEPES, 1% Sodium Pyruvate, 2% Sodium Bicarbonate supplemented with 100 units/mL penicillin, 50 μg/mL streptomycin, 2-mercaptoethanol (0.05 mM) [basal medium] and 10% fetal bovine serum (Catalog #16140089, Life Technologies, Carlsbad, Calif.) at 37° C. and 5% CO2.
THP-1 cells were cultured in basal media with 1% FBS for 24 hours before the start of the assay. Each compound was dissolved in DMSO as a 10 mM stock and used to prepare compound source plates. Serial dilution (1:3, 10-point dose-response curves starting from 10 μM) and compound transfer was performed using the ECHO 550 (Labcyte, Sunnyvale, Calif.) into 384-well white low volume assay plates (Greiner Bio-One) with appropriate DMSO backfill for a final DMSO concentration of 0.1%. THP-1 cells were plated at 5000 cells/well in the 384-well plates and incubated at 37° C. for 2 h. 500 ng/mL of LPS was added after 2 hours and cells were incubated for another 22 hours at 37° C. Plates were spun in a centrifuge for 1 minute at […] and a mixture of anti-IL6 XL665, and anti-IL6 Cryptate diluted in reconstitution buffer (Cisbio Inc.) was added to each well. Following incubation for 3 hrs at room temperature, Homogeneous Time-Resolved Fluorescence (HTRF) was measured using the Envision (Perkin Elmer) at 665 nm and […]. The ratio of fluorescence at 665 nm to 620 nm was used as a readout for IL6 quantification. All samples were processed in duplicate. Readings were normalized to DMSO treated cells and normalized activities were utilized for EC50 calculations using the dose-response log (inhibitor) vs. response -variable slope (four parameters) nonlinear regression feature available in GraphPad Prism 5.0 (or Dotmatics). For EC50 of >10 μM, the percent inhibition at 10 μM is provided.
(In general: TR-FRET usually uses a lanthanide donor and a delayed reading to cut background.)

pEC50: −log10 of the molar value.

Consider `CN1CCN(c2ccnc3[nH]c(-c4n[nH]c5ccc(-c6cncc(OCc7ccccc7)c6)nc45)nc23)CC1` [Compound 646, 5-(5-(Benzyloxy)pyridin-3-yl)-3-(7-(4-methylpiperazin-1-yl)-3H-imidazo [4,5-b]pyridin-2-yl)-1H-pyrazolo[4,3-b]pyridine], for which the pEC50 in experiment [1] is 5.77; with SW480 colon cancer cells it was 5.94; in experiment [2], 5.74; in the experiment on IL-6 (THP-1 cells), 5.83.
On to `Cc1ccc(-c2ccnc3[nH]c(-c4n[nH]c5ccc(C6=CCNCC6)nc45)nc23)s1` [Compound 730, 3-(7-(5-Methylthiophen-2-yl)-3H-imidazo[4,5-b]pyridin-2-yl)-5-(1,2,3,6-tetrahydropyridin-4-yl)-1H-pyrazolo[4,3-b]pyridine], for which the pEC50 in experiment [1] is 6.31; in the experiment with SW480 colon cancer cells it was 5.46; in experiment [2], 5.50; in the experiment with IL-6 (THP-1 cells), 6.25.
For the compound `Cc1ncc(-c2ccc3[nH]nc(-c4nc5c(-c6cc(F)cc(NCCN(C)C)c6)ccnc5[nH]4)c3n2)n1C` [Compound 781, N^1-(3-(2-(5-(1,2-Dimethyl-1H-imidazol-5-yl)-1H-pyrazolo[4,3-b]pyridin-3-yl)-3H-imidazo[4,5-b]pyridin-7-yl)-5-fluorophenyl)-N^2,N^2-dimethylethane-1,2-diamine], the pEC50 is 5.32 in experiment [1], 6.03 with SW480 colon cancer cells, 6.21 in experiment [2] and 6.20 in the experiment on IL-6 (THP-1 cells).
For the compound `CN(C)CCNc1cc(F)cc(-c2ccnc3[nH]c(-c4n[nH]c5ccc(-c6cncc(OCc7ccccc7)c6)nc45)nc23)c1` [Compound 790, N^1-(3-(2-(5-(5-(Benzyloxy)pyridin-3-yl)-1H-pyrazolo[4,3-b]pyridin-3-yl)-3H-imidazo[4,5-b]pyridin-7-yl)-5-fluorophenyl)-N^2,N^2-dimethylethane-1,2-diamine], the negative logarithm of the EC50 (pEC50) in experiment [1] was 5.60; in the experiment on SW480 colon cancer cells, 5.65; in experiment [2], 5.58; in the experiment with IL-6 (THP-1 cells), 5.32.
